Reference: US20220023269A1, “Methods Of Treating Diabetes In Severe Insulin-Resistant Diabetic Subjects” (Balticgruppen Bio AB, priority 2018, published 2022)

Columns and labels:
[1] = test system: Wistar rats; experiment: 6 months oral gavage in Wistar rats; format: in vivo; conditions: 100, 300 and 600 mg/kg/day gavage, RD, vs vehicle
Method: 8-10 weeks old Wistar male and female rats were treated by oral gavage with vehicle or test material at 100, 300 or 600 mg/kg/day for 6 months.

[2] = test system: hIAPPtg islets; experiment: Ex vivo islet amyloid assay; format: cell-based, mouse; conditions: 22 mM glucose
Method: Islets amyloid was quantification was done on pancreatic tissues isolated from hIAPPtg mice on HFD for 16 weeks (n=7 mice/n=69 islets) and hIAPPtg mice on HFD for 9 weeks then switched to test material-HFD (2 mg/g) for 7 weeks (n=5 mice/n=48 islets). Isolated pancreases was direct frozen, sectioned, and amyloid content quantified by staining with Thioflavin-S as previously described (Reference 2). For ex vivo analyses, islets were isolated by collagenase digestion of the pancreas (Reference 1) and cultured in RPMI medium 1640 (GIBCO #11879-0) supplemented with 11.1 or 22.2 mM glucose (GIBCO #A24940-01), 1% fetal bovine serum (GIBCO #10500), 50 U; μg/ml Pen/Strep (Gibco #15140-122), 10 mM Hepes (Umeå University, Laboratory medicine), 1 mM sodium pyruvate (GIBCO #11360-039) and 0.1% 2-Mercaptoethanol (Sigma #M3148). 0, 2.5, 5.0, and 10 μM test material were added from day 0 of culture. For assessing the effect of autophagy inhibition, 3-Methyladenine (3-MA, Aldrich #M9281), 5 μM, was added from day 0 of culture in combination with test material, 5 μM. The control contained DMSO 1:2000. Medium and compounds were changed every second day. After 92 hours of treatment islets were embedded, sectioned and amyloid content quantified by staining with Thioflavin-S as previously described (Reference 2). A minimum of 3 independent experiments was evaluated.

[3] = test system: DIO mice (B6CBAF1/J); experiment: Laser Doppler imaging of peripheral blood perfusion; format: in vivo; conditions: 40 mg/kg/day gavage, 8 w, vs vehicle
Method: 9 weeks old F1 mice were fed HFD for 8 weeks and treated with either vehicle or test material (40 mg/kg, orally once a day). Veet hair removal cream was used to remove hair from the left hind limb one day prior to blood perfusion analysis. Mice were anaesthetised using isoflurane and placed on a heating pad. Blood perfusion was scanned using a PeriScan PIM II Images and LDPIwin software (version 2.6.1) was used to analyse the images.

[4] = test system: CBA mice on HFD; experiment: Indirect calorimetry measurements; format: in vivo; conditions: 11 w
Method: VO2 and VCO2 rates were measured during 3 days by indirect calorimetry in TSE PhenoMaster Calorimetry metabolic cages (TSE Systems GmbH). The respiratory exchange ratio (RER) was calculated as a ratio of VCO2 produced/VO2 consumed. […] Energy expenditure (EE) was calculated as the product of the calorific value (CV) of oxygen [=3.815+(1.232×RER)] and the volume of O2 consumed, i.e. [EE=CV×VO2 (kcal/h)] and related to lean weight.

[5] = test system: DIO mice; experiment: Prevention of dysglycemia and insulin resistance in DIO B6 mice (oral gavage, 8 w); format: in vivo; conditions: 100 mg/kg/day each
Method: MATSUDA index was calculated via: […] […] All cell lines were lysed in 0.1 M Tris-HCl, pH 6.8, 2% SDS, 10 mM sodium fluoride (SIGMA #S7920), 10 mM β-glycerophosphate (SIGMA #G6376), and 1 mM sodium vanadate (SIGMA #72060) and supernatant collected after 1 minute at 14,000 rpm. Islets (human and mouse) were lysed in 0.1 M Tris-HCl, pH 6.8, 2% SDS, protease inhibitor (Roche #04 693 124 001) and phosphatase inhibitor (Roche #04 906 837 001). […] The supernatant was collected after 2 min at 14,000 rpm. This procedure was repeated until all fat was eliminated and the supernatant was clear, at 4° C. Samples were analysed on 4-15% polyacrylamide gels. Values were normalised toward AMPKα, β-Actin, GAPDH or the respective non-phosphorylated counterpart. For RNA purification calf muscle, iWAT, interscapular BAT, and left lateral liver lobe was crushed in a pestle using liquid nitrogen before turning to respective RNA kit. RNA from liver was prepared using Total RNA isolation Nucleospin II Kit (Macherey-Nagel #740955.50). RNA from adipose tissue was prepared using RNeasy Lipid Tissue Mini kit (Qiagen #74804). RNA from calf muscle tissue was prepared using RNeasy Fibrous Tissue Mini kit (Qiagen #74704). First strand cDNA synthesis was done using SuperScript III (First-Strand Synthesis SuperMix for qRT-PCR, Invitrogen #11752-250) according to the manufacturer's instructions. Total RNA was prepared from isolated islets using RNeasy Micro Kit (Qiagen #74004) and first strand cDNA synthesis was done using Superscript III (Invitrogen #18080-051) according to the manufacturer's instructions. Quantification of mRNA expression levels was performed essentially as previously described (Reference 3).

[6] = test system: AMPK; experiment: SAMS peptide AMPK activity assay; format: biochemical; conditions: 2.5, 5 or 10 μM
Method: 50 ng AMPK (Upstate #14-305) was mixed in various combination with 2.5, 5 or 10 μM test material or 20 μM AMP (Sigma #A2002) in buffer (40 mM Hepes pH7.45, 0.5 mM DTT, 2 mM MgCl2, 0.1% DMSO). In all settings 10 μg SAMS and 0.03 μCi/μl ^32P ATP (Perkin Elmer #NEG502Z500UC) were added. Total reaction volume was 25 μl, all components mixed on ice and the reaction carried out at 37° C., 15 minutes, before terminated with 5 μl phosphoric acid, and placed back on ice. 25 μl reaction were dried in on Whatman P81 filters, 50° C., 2 minutes, washed 3 times in 250 ml 1% phosphoric acid, 2 minutes, before added to 4 ml liquid scintillation cocktail (Perkin Elmer #1200-437) and counted, 1 minute, in a Wallac 1414 beta counter. The radioactivity correlates to enzyme activity.

[7] = 0.8 mg/g in HFD, light and dark periods

O=C(Nc1nc(=O)n(Cc2ccc(Cl)cc2)s1)c1ccc(Cl)cc1 [test material, 4-chloro-N-[2-[(4-chlorophenyl)methyl]-3-oxo-1,2,4-thiadiazol-5-yl]benzamide]
heart/brain weight [1]: did not show increased heart/brain weight
preventive effect on amyloid formation in presence of autophagy inhibitor 3-MA ([2]; 5.0 μM test material + 5.0 μM 3-MA): significantly attenuated
amyloid formation (Thio-S+ deposits) ([2]; 2.5, 5.0, 10 μM, dose-dependent): attenuated amyloid formation
microvascular blood flow in hind legs [3]: significantly increased microvascular blood flow
energy expenditure (EE) [4, 7]: significantly increased
oxygen consumption (VO2) [4, 7]: significantly increased
respiratory exchange ratio (RER) ([4]; 0.8 mg/g, day 2 light period, all 3 days dark period): significantly decreased
HFD-provoked increase in fasted glucose ([5]; oral gavage, 6 w): averted the HFD-provoked increase
HFD-provoked increase in fasted plasma insulin ([5]; oral gavage, 6 w): averted the HFD-provoked increase
insulin resistance (HOMA-IR) ([5]; oral gavage, vs vehicle): did not develop insulin resistance
Glut1 mRNA levels in calf muscle ([5]; 8 w): increased Glut1 mRNA levels
Txnip mRNA levels in calf muscle ([5]; 8 w): reduced Txnip mRNA levels
pAMPK in calf muscle ([5]; 8 w): significantly increased pAMPK
allosteric activation of AMPK [6]: did not allosterically activate AMPK
